Measured values taken from paper PMC6600665, “Identification and Characterization of Approved Drugs and Drug-Like Compounds as Covalent Escherichia coli ClpP Inhibitors” (International Journal of Molecular Sciences, 2019).
Peptide text beside a SMILES is read from it.

Key:
E. coli ClpP [1] = molecular target: T1, E. coli ClpP (Escherichia coli, UniProt P0A6G7); assay: Fluorescence-based E. coli ClpP proteolytic activity assay (Suc-LY-AMC), primary screen and dose-response; format: biochemical; conditions: for E. coli ClpP inhibition [%] in the primary screen: 200 µM; for inhibition at 200 µM: read-out: E. coli ClpP inhibition [%] in the primary screen, primary screen, 200 µM
T1 construct: His-tag; made in house; host or cells: E. coli SG1146a
T1 sequence (P0A6G7 15-207): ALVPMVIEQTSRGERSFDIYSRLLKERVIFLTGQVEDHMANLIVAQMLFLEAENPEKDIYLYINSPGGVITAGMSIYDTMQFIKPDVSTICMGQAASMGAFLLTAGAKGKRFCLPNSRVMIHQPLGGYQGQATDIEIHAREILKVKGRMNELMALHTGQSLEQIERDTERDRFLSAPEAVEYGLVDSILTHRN
Procedure: Briefly, 25 ng/μL of E. coli ClpP dissolved in a buffer containing 100 mM NaCl, 100 mM 4-(2-hydroxyethyl)-1-piperazineethanesulfonic acid (HEPES) pH 7.5, and 0.05% Brij® 35 were transferred into each well. Test compound addition (final concentration 200 µM) was carried out using an Echo® 550 liquid handling system (Labcyte, Sunnyvale, CA, USA). […] Changes in fluorescence (excitation 350 nm, emission 435 nm) were monitored at 1 min intervals at 30 °C over 1 h using an Infinite M1000 microplate reader (Tecan).
The assay was carried out as described above with increasing concentrations of test compounds. Dose-response experiments were done at least 3 times independently, each in technical triplicates.
Calculation of Z prime (Z’) for HTS assay performance was done according to Zhang et al.. Plates were considered for further analyses if Z’ > 0.6 [26].

E. coli JW0427 (ΔclpP) = assay: Growth delay under nitric oxide stress (DPTA NONOate) in M9 medium, clpP-deficient strain; format: cell-based; conditions: ΔclpP E. coli, 2 mM DPTA NONOate, no test compound, M9 minimal medium
Procedure: (§1) Assessment of E. coli growth delay in presence of nitric oxide stress was carried out following our recently published protocol, which is an adaptation of the method reported by Robinson and Brynildsen to a 96-well plate format. Fresh MHB medium was inoculated with isolated colonies of E. coli BW25-113 or E. coli JW0427-1, grown on Luria Agar, and left overnight in a shaking incubator (250 rpm) at 37 °C. On the following day, the overnight culture was used to inoculate fresh M9 medium (supplemented with 10 mM glucose) 1:100, and was grown until OD600 ~0.3. Afterwards, the culture was transferred into 96-well, flat-bottom, sterile clear plates (#167008, Nunc, VWR). Bacterial OD600 was adjusted to 0.1 with M9 medium (supplemented with 10 mM glucose). Test compounds were transferred into the 96-well plates, followed by addition of the bacterial culture. Nitric oxide stress was induced by addition of 2 mM DPTA NONOate ((Z)-1-[N-(3-aminopropyl)-N-(3-ammoniopropyl)amino]diazen-1-ium-1,2-diolate, Cayman Chemical, Ann Arbor, MI, USA), dissolved in NaOH (final concentration 0.14 mM). Absorbance measurements (600 nm) were done with a Multiskan GO or Varioskan LUX plate reader (Thermo Fisher Scientific, Finland) at hourly intervals for 24 h. Between measurements, plates were incubated in a shaking incubator (500 rpm) at 37 °C.

[2] = tested on: E. coli BW25-113 (wild type); assay: Growth delay under nitric oxide stress (DPTA NONOate) in M9 medium, wild type; format: cell-based; conditions: wild-type strain, 2 mM DPTA NONOate, no test compound, M9 minimal medium
Procedure: as §1

A549 cells = assay: in vitro; format: cell-based
Procedure: (§2) Potential cell toxicity of the tested compounds was evaluated by ATP quantification using the CellTiter-Glo® luminescent cell viability assay (Promega, Madison, WI, USA). […] After incubation, 20 µL of CellTiter-Glo® reagent were added per well and incubated at room temperature in the dark for another 30 min. Luminescence was quantified by an EnVision multi-plate reader (PerkinElmer, Rodgau, Germany).

HTC-116 cells = assay: in vitro; format: cell-based
Procedure: as §2

MCF-7 cells = assay: in vitro; format: cell-based
Procedure: as §2

E. coli ClpP [3] = molecular target: T1, E. coli ClpP; assay: Surface plasmon resonance binding to immobilized ClpP; conditions: 80 µM, injected over 7 min, 30 min dissociation
Procedure: E. coli ClpP (80 μg/mL) protein was immobilized, using amine coupling (SPR-AS-HCA-03, Bruker Daltonics Inc., Billerica, MA, USA), onto the surface of the sensor chip of a SIERRA SPR-16 instrument (Bruker Daltonics GmbH, Bremen, Germany). ClpP protein was dissolved in acetate at pH 4. The running buffer contained 150 mM NaCl, 10 mM Hepes, 3 mM EDTA, and 0.05% (v/v) Tween-20. The flow rate for protein immobilization was 10 μL/min. Binding experiments were carried out using running buffer with the addition of 0.8% (v/v) of DMSO and 80 µM test substance (flow rate of 20 μL/min for 7 min and up to 30 min of dissociation time). […] SPR data were analyzed using the Analyzer 3 software (Bruker Daltonics GmbH), which includes algorithms for subtracting reference signals and accounting for non-specific interactions between the solvent and the sensor chip surface.

Compound | E. coli ClpP inhibition [%] in the primary screen (E. coli ClpP [1]) [%] | inhibition at 200 µM (E. coli ClpP [1]) [%] | other results
N.N.O=C([O-])C1(C(=O)[O-])CCC1.[Pt+2] [carboplatin] | 5.4 | – | –
O=c1c(O)c(-c2cc(O)c(O)c(O)c2)oc2cc(O)cc(O)c12 [Myricetin] | – | 76 | –
CO[C@H]1/C=C/O[C@@]2(C)Oc3c(C)c(O)c4c(O)c(c(/C=N/N5CCN(C6CCCC6)CC5)c(O)c4c3C2=O)NC(=O)/C(C)=C\C=C\[C@H](C)[C@H](O)[C@@H](C)[C@@H](O)[C@@H](C)[C@H](OC(C)=O)[C@@H]1C [Rifapentine] | – | 71.5 | –
CCN(CC)CCNC(=O)c1c(C)[nH]c(/C=C2\C(=O)Nc3ccc(F)cc32)c1C [Sunitinib Malate] | – | 80.7 | –
N=C(N)N/N=C/c1c(Cl)cccc1Cl [guanabenz] | > 90 | 100 | E. coli ClpP IC50 (E. coli ClpP [1]; dose-response, 1:3 dilution starting from 200 μM, substrate Suc-LY-AMC): did not confirm as ClpP inhibitor
NCCCN(CCCN)/[N+]([O-])=N/O [DPTA NONOate, (Z)-1-[N-(3-aminopropyl)-N-(3-ammoniopropyl)amino]diazen-1-ium-1,2-diolate] | – | – | Growth arrest by the NO• donor alone (E. coli JW0427 (ΔclpP)): ~ 4 h; Growth arrest by the NO• donor alone [2]: ~ 3 h
CC(C)C[C@H](NC(=O)OCc1ccccc1)C(=O)N[C@@H](Cc1ccc(O)cc1)C(=O)CCl [Z-LY-CMK, benzyloxycarbonyl-leucyl-tyrosine chloromethyl ketone] (HELM PEPTIDE1{[O=C(OCc1ccccc1)[*:2]].L.Y.[ClC[*:1]]}$$$$V2.0) | – | – | IC50 (A549 cells; 48 h incubation, 1:3 dilutions starting from 200 μM, read-out: Cytotoxicity A549 IC50): 7.15 µM; Cytotoxicity A549 Ratio (IC50 cytotoxicity/IC50 ClpP) (A549 cells; A549): 0.51; IC50 (HTC-116 cells; 48 h incubation, 1:3 dilutions starting from 200 μM, read-out: Cytotoxicity HTC-116 IC50): 3.54 µM; Cytotoxicity HTC-116 Ratio (IC50 cytotoxicity/IC50 ClpP) (HTC-116 cells; HTC-116): 0.25; IC50 (MCF-7 cells; 48 h incubation, 1:3 dilutions starting from 200 μM, read-out: Cytotoxicity MCF-7 IC50): 0.05 µM; Cytotoxicity MCF-7 Ratio (IC50 cytotoxicity/IC50 ClpP) (MCF-7 cells; MCF-7): 0; Inhibition (%) at 200 μM E. coli ClpP (E. coli ClpP [1]; 200 μM compound concentration): 98.6%; IC50 (E. coli ClpP [1]; dose-response, 1:3 dilution starting from 200 μM, substrate Suc-LY-AMC, read-out: E. coli ClpP IC50): 14 µM; Covalent / irreversible binding to ClpP by SPR (E. coli ClpP [3]): irreversibly binding
CC(=O)Oc1ccccc1C(=O)Nc1ncc([N+](=O)[O-])s1 [Nitazoxanide] | – | 80 | –
N#CC(C#N)=Cc1ccc(O)c(O)c1 [Tyrphostin 23] | – | 79.3 | –
CC1=C(/C=C/C(C)=C/C=C/C(C)=C/C(=O)Nc2ccc(O)cc2)C(C)(C)CCC1 [Retinoic acid p-hydroxyanilide] | 74.12 | – | –
CO[C@@]1(NC(=O)C2SC(=C(C(N)=O)C(=O)O)S2)C(=O)N2C(C(=O)O)=C(CSc3nnnn3C)CS[C@@H]21 (stereo partly drawn) [cefotetan] | – | -4.6 to 19.3 | –
C[n+]1ccccc1CC(=O)c1ccc(Br)cc1.[I-] [S 24795] | 76.27 | – | –
CCOC(=O)[C@@H](N)CCC(=O)N[C@@H](CSCc1ccccc1)C(=O)N[C@@H](C(=O)OCC)c1ccccc1 [Ezatiostat] | 88.80 | – | –
